Tests used:
Assay type in all cases: biochemical
DENV2 NS5 [1] = biological target: T1, DENV2 NS5 (Dengue virus 2 Thailand/16681/84, UniProt P29990); conditions: read-out: KM^app for ATP
DENV2 NS5 [2] = biological target: T1, DENV2 NS5; assay: SYTO […] fluorescence RdRp assay, A2-primed, poly(U) template; conditions: read-out: IC50 ^a (μM, mean ± std. dev.)
ZIKV NS5 = ZIKV NS5 (Zika virus, UniProt Q32ZE1); assay: as above; conditions: read-out: IC50 ^a (μM, mean ± std. dev.)
Sequence of ZIKV NS5 (Q32ZE1 2517-3419): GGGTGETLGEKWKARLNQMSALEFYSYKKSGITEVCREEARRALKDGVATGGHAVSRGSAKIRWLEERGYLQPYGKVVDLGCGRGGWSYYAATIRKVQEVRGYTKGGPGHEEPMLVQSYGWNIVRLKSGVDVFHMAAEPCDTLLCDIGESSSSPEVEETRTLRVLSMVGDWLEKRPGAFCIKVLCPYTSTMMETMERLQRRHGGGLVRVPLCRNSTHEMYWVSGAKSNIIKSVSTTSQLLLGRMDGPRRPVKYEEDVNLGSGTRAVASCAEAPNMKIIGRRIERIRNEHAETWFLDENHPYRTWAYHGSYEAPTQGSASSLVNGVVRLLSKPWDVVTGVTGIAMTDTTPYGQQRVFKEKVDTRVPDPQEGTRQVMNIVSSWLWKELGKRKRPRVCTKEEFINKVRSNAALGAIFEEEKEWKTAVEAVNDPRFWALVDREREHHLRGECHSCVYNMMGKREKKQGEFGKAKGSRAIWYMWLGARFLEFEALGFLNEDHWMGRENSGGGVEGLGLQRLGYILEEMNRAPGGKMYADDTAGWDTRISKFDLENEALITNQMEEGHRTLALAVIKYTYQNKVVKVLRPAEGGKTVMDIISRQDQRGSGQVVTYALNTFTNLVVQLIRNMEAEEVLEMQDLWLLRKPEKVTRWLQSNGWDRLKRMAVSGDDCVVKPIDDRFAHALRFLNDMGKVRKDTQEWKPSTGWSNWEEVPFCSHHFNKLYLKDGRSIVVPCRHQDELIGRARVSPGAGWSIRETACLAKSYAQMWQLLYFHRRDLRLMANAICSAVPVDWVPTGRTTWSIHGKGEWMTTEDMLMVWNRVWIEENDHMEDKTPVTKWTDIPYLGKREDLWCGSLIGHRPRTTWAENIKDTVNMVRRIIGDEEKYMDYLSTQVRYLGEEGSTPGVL

T1 sequence (P29990 2492-3391 limits assumed): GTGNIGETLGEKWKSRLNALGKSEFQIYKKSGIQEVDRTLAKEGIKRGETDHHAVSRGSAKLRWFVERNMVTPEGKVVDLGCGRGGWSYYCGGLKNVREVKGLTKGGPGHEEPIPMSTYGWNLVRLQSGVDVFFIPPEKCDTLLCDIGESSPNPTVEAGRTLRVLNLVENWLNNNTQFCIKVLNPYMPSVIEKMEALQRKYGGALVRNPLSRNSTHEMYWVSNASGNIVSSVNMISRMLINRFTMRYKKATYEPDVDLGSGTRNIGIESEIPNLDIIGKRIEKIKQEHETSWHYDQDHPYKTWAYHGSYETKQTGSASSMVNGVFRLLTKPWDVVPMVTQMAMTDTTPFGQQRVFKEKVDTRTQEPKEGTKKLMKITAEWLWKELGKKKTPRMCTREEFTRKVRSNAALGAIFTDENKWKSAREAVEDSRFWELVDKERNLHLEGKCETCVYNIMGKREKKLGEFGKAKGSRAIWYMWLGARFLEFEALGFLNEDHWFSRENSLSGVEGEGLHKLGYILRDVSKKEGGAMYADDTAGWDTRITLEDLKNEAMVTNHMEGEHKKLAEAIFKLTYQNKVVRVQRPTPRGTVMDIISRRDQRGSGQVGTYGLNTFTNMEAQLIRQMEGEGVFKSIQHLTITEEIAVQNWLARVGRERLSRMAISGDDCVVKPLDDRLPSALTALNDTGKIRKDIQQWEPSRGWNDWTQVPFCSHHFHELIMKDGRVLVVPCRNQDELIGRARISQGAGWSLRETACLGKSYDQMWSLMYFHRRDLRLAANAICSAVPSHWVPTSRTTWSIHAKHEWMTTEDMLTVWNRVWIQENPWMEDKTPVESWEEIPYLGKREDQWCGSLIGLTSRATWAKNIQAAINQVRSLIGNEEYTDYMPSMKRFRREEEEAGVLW

Structure (SMILES)	Km (DENV2 NS5 [1]) [µM]	IC50 (DENV2 NS5 [2]) [µM]	IC50 (ZIKV NS5) [µM]
Nc1ncnc2c1ncn2[C@@H]1O[C@H](COP(=O)(O)OP(=O)(O)OP(=O)(O)O)[C@@H](O)[C@H]1O [ATP]	430		
Nc1ncnc2c([C@@H]3N[C@H](COP(=O)(O)OP(=O)(O)OP(=O)(O)O)[C@@H](O)[C@H]3O)c[nH]c12 [Gal-TP]		42 ± 12	47 ± 5
Nc1ncnc2c1ncn2[C@@H]1O[C@H](COP(=O)(O)OP(=O)(O)OP(=O)(O)O)C[C@H]1O [3′-dATP, reference compound]		0.48 ± 0.05	0.06 ± 0.02
